Reference: US20180015455A1, “ADDITIVE CHANNELS” (Emulate Inc., priority 2016, published 2018)
Entries after “also recorded” stand apart in the source; their conditions may differ. Positions of bridges follow the written chain, without caps; N, C: chain ends. Non-standard residues stand in square brackets, D forms with d. Residues, ends and D or L forms follow the SMILES beside them. hArg = N=C(N)NCCCC[C@H](N)C(=O)O; Mpa = O=C(O)CCS

Assays:
platelets [1] = test: Platelet activation quality control by p-selectin expression; format: cell-based, human; conditions: control blood upon activation by ADP
Method: To test for a thrombic event, blood was collected from 4 donors, the as blood alone or blood treated with hu5C8 alone (240 μg/mL), sCD40L (10 ng/ml) alone or with combined hu5C8/sCD40L was incubated for 20 minutes at room temperature. Each sample was further incubated for 5 minutes with fluorescent labels for platelets and fibrinogen. As a standard quality control, the control blood was tested for platelet activation using p-selection expression. We confirmed that platelets in control blood were not activated but upon activation by ADP, over 90% of platelet was positive for p-selectin.

fibrin = test: Vessel-On-Chip blood perfusion: fibrin deposition (fluorescent fibrinogen); format: cell-based, human
Method: (§1) Briefly, human blood was drawn in citrate buffer and used within 4 hours. Platelets were stained using fluorescently labeled non-blocking antibodies for the platelet surface marker CD41 and low dosages of fluorescent fibrinogen were added in order to visualize fibrin deposition. Blood was re-calcified in order to re-establish the full coagulation potential, then introduced in the biomimetic vessel-on-chip from the main inlet (embodiments of inlets shown in FIG. 18A-1, FIG. 18A-2 and FIG. 19C). The outlet of the chip was connected to a pulling syringe pump with a system of tubing and connectors made of medical grade silicon that excludes any metal components or potential causes of platelet activation (FIG. 5A).
When analyzing the formation of fibrin, […] of fluorescently labeled fibrinogen (Alexa 488, Invitrogen) was also added to the blood. While fluorescent fibrinogen was barely detected as a diffused fluorescence, fibrin deposition on inflamed cells and sparse clots was easily distinguished since fibrin formed filamentous structures produce a signal intensity that is clearly observed above a background threshold.
Chips perfused with blood samples were immediately imaged via fluorescence microscopy (Olympus IX83, 10× objective UPLFLN10X2, Orca-Flash4.0 CMOS Camera). […] Image processing and quantification was performed with an automatic macro compiled in ImageJ and numerical values corresponding to platelet coverage or fibrin florescence were collected and statistically analyzed in Graphpad Prism V7.
(§2) A percentage of signal coverage (or Platelet coverage) was computed from the binary image as the ratio of bright pixels to the total number of pixels in the image. Image processing and quantification was performed with an automatic macro compiled in ImageJ in order to ensure unbiased signal measurements. Numerical values corresponding to platelet coverage or fibrin fluorescence (signal intensity) were collected and statistically analyzed in Graphpad Prism V7.

[2] = tested on: thrombin anti-thrombin complex (TAT); test: Thrombin anti-thrombin (TAT) ELISA in chip effluent plasma; format: cell-based, human
Method: Thrombin converts fibrinogen into fibrin during clot formation, and anti-thrombin plays a role in maintaining homeostasis by inhibiting the effect of thrombin. Formation of TAT in the microdevice confirms that local and intrinsic generation of thrombin, a potent platelet agonist, occurs in the model and that counter regulatory mechanisms for coagulation are retained. Thus, blood sampled from the Vessel-On-Chip was analyzed for thrombin anti-thrombin complex (TAT), an accepted clinical biomarker for procoagulation^48,49. TAT refers to a factor released upon activation of the coagulation cascade and one of the biomarkers associated with thrombotic events occurring in patients affected with deep vein thrombosis (DVT) or Systemic lupus erythematosus (SLE)^45,46. An enzyme-linked immunosorbent assay (ELISA) was used to quantify the thrombin anti-thrombin complex (TAT).
Thrombin Anti-Thrombin (TAT) levels were analyzed in plasma from blood flowing out of the chip device by removing a sample from the outflow port. Thus TAT levels were evaluated in sample effluents collected from the outflow port of the chip using the Human TAT ELISA Kit (Siemens Healthineers) according to the user manual.
Blood sampled from the Vessel-On-Chip outflow port was analyzed for thrombin anti-thrombin complex (TAT), a factor released upon activation of the coagulation cascade and one of the biomarkers associated with thrombotic events occurring in patients affected with deep vein thrombosis (DVT) or SLE^45,46. TAT is an accepted clinical biomarker for procoagulation^48,49. An enzyme-linked immunosorbent assay (ELISA) was used to quantify the thrombin anti-thrombin complex (TAT).

platelets [3] = test: Vessel-On-Chip blood perfusion: platelet coverage/aggregation by fluorescence imaging; format: cell-based, human
Method: as §1
Platelets were labeled with human CD41-PE antibody (10 μL/ml, Invitrogen) directly added to the blood and incubated at room temperature for 5 minutes.
A medical grade plastic reservoir was mounted on the chip, then 800 μl of the blood sample was pipetted into the reservoir. The chip was perfused with the blood by withdrawing it at a rate of 60 μl/minute using a syringe pump. The citrated blood was re-calcified 2 minutes after the beginning of each experiment by adding 100 μl/ml of a solution containing 100 mM calcium chloride and 75 mM magnesium chloride to the blood to permit calcium- and magnesium-dependent platelet function and coagulation.
Chips perfused with blood samples were immediately imaged via fluorescence microscopy (Olympus IX83, 10× objective UPLFLN10X2, Orca-Flash4.0 CMOS Camera). Each chamber was inspected along its entire length and 5 images (about 0.25 cm) were captured from the central area of the chamber. Image processing and quantification was performed with an automatic macro compiled in ImageJ and numerical values corresponding to platelet coverage or fibrin florescence were collected and statistically analyzed in Graphpad Prism V7.
as §2

ICAM1 = ICAM1 immunostaining of endothelium; format: cell-based, human; conditions: TNF-α stimulated endothelium
FcγRIIa = target: T1, FcγRIIa (Homo sapiens, UniProt P12318); test: Vessel-On-Chip hu5C8-mediated thrombosis, FcγRIIa dependence (platelet coverage, fibrin deposition, TAT); format: cell-based; conditions: FcγRIIa blocked with IV.3 (1 μg/ml) or non-FcγRIIa binding IgG2σ variant, with sCD40L 10 ng/ml
T1 construct: Blood from several human donors were aliquoted into groups for the following treatments; host or cells: platelets in citrated human whole blood from donors, perfused over HUVEC-lined chips
T1 sequence (P12318 34-317): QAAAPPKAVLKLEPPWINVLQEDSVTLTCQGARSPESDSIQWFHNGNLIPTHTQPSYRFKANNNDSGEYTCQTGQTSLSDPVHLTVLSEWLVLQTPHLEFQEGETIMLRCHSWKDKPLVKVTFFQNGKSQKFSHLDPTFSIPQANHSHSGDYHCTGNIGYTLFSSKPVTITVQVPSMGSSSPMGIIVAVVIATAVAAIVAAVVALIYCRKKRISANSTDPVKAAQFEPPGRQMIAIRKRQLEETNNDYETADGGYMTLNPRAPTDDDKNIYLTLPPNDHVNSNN
Text: Recent studies conducted on humanized mice expressing the human Fcγ receptors (FCGR2A) have shown that this receptor plays a role in thrombosis leading to the IC-mediated toxicity^12,16,21. […] In order to investigate if the ICs-induced thrombosis that we observed in our vessel-on-chip system also relies on an Fc-mediated mechanism, we used two different tool molecules: IgG2a and IV.3 (FIG. 25A). The IgG2σ variant of hu5C8 has an engineered Fc region^48 that eliminates affinity for the FcγRIIa, while the monoclonal antibody IV.3 is a blocking antibody binding to FcγRIIa. Briefly, equimolar concentrations of IgG2σ or hu5c8 were incubated with 10 ng/ml of sCD40L for 20 minutes to form ICIgG2σ or IC5c8, respectively.
Some of the blood samples were treated with IV.3 (1 μg/ml) for 10 minutes to block the FcγRIIa, and then incubated for 20 more minutes with ICs. Finally, blood alone (control) or blood incubated with IC5c8, ICIgG2σ or IV.3 was perfused through the biomimetic microfluidic-on-chip for about 10 minutes. We tested 15 donors and all the tested conditions described above were tested in duplicates and analyzed as percentage of platelet coverage based on fluorescence microscopic imaging (FIG. 25B). Five of the donors were also tested for fibrin deposition (FIG. 25C). Finally, effluents plasma obtained from a total of 7 of the donors (including the 5 mentioned before) were used to assess TAT via ELISA (FIG. 25D). […]
Blood from several human donors were aliquoted into groups for the following treatments: controls (PBS), sCD40L, combined hu5C8/sCD40L, combined hu5C8 (IgG2σ)/sCD40L combined, and combined hu5C8/sCD40L/IV.3. Each condition was tested with a minimum of 3 donors to a maximum of 15 donors, and all conditions were tested in duplicates and analyzed for platelet coverage (FIG. 25B), fibrin deposition (FIG. 25C), or increased formation of TAT measured in the eluates (FIG. 25D). […]

[4] = hu5C8: lupus nephritis clinical study; IDEC-131: Crohn's disease clinical trial; cited from earlier work
[5] = Eptifibatide 2 ug/ml, endothelium inflamed with TNF-α, n=4
[6] = pro-thrombotic stimulus vs blood alone, TNF-α 50 ng/ml 6 hours on endothelium, sCollagen 10 μg/ml in blood

With Nc1ncnc2c1ncn2[C@@H]1O[C@H](COP(=O)(O)OP(=O)(O)O)[C@@H](O)[C@H]1O [ADP] the “platelets positive for p-selectin” value (platelets [1]) was “over 90%”.
For N=C(N)NCCCC[C@@H]1NC(=O)CCSSC[C@@H](C(N)=O)NC(=O)[C@@H]2CCCN2C(=O)[C@H](Cc2c[nH]c3ccccc23)NC(=O)[C@H](CC(=O)O)NC(=O)CNC1=O [Eptifibatide] ([Mpa][hArg]GDWPC-NH2; disulfide 1-7), the “inhibition of fibrin clot formation” value (fibrin; [5]) was “significantly inhibited”, the “fibrin signal remaining with Eptifibatide” value (fibrin; Eptifibatide 2 ug/ml, samples treated with TNF-α) was “still detectable” and the “effect on TAT increment associated with TNF-α-induced inflammation” value ([2]; Eptifibatide treatment) was “did not inhibit”. The “effect on TAT increment due to sCollagen treatment” value ([2]; Eptifibatide treatment) was “entirely suppressed”, the “inhibition of platelet aggregation” value (platelets [3]; [5]) was “significantly inhibited” and the “inhibitory effect on platelet aggregation and fibrin clot formation” value (platelets [3]; Eptifibatide 2 ug/ml, following treatment with sCollagen, n=4) was “comparatively modest”. The “platelet adhesion (image analysis of multiple experiments)” value (platelets [3]; Eptifibatide 2 ug/ml, n=4) was “completely inhibited” and the “effect on platelet coverage and fibrin deposition in stimulated, pro-thrombotic conditions” value (platelets [3]; Eptifibatide added, TNF-α or sCollagen, n=4) was “suppressed; also recorded: inhibited”.
In the case of TNF-α, the “ICAM1 expression in the endothelium compared to control” value (ICAM1) is reported as “increased expression; also recorded: higher”, the “fibrin deposition / fibrin signal intensity” value (fibrin; [6]) is reported as “significantly increased” and the “levels of TAT in outflow samples” value ([2]; after treatment, FIG. 22B) is reported as “significantly increased; also recorded: elevated levels”. For the same molecule, the platelet coverage (platelets [3]; [6]) was “significantly increased”.
In the case of “hu5C8 (IgG2σ): IgG2σ variant of hu5C8 with an engineered Fc region that eliminates affinity for FcγRIIa”, the “hu5C8-mediated thrombosis on-chip (all endpoints)” value (“hu5C8-mediated thrombosis on-chip” below) (FcγRIIa) is reported as “did not show signs of thrombosis”, the “hu5C8-mediated thrombosis on-chip” value (FcγRIIa; listed as IgG2σ) is reported as “suppressed” and the “hu5C8-mediated thrombosis on-chip” value (FcγRIIa; listed as hu5C8-IgG2σ) is reported as “not detected”.
For “hu5C8: humanized monoclonal IgG1 antibody against CD40L (anti-CD154)”, the “treatment-related effects compared to untreated blood” value (platelets [3]; hu5C8 alone 240 μg/mL or sCD40L alone 10 ng/ml, 4 donors, 60 μl/minute) is given as “no significant treatment-related effects” and the “incidence of thromboembolic events” value [4] is given as 2/18.
